Assay results published in article PMC3655514 (Acta crystallographica. Section D, Biological …, 2010).
Like-named read-outs stand apart in the source and are kept apart here.

Key:
[1] = target: T1, pteridine reductase (TbPTR1) (Trypanosoma brucei, UniProt O76290); assay: crystal structure at […] Å; assay type: biochemical
[2] = target: T1, pteridine reductase (TbPTR1); assay: crystal structure at […] Å; assay type: biochemical; remark: listed apart in the source
[3] = target: T1, pteridine reductase (TbPTR1); assay: crystal structure at […] Å; assay type: biochemical; remark: listed apart in the source
[4] = target: T1, pteridine reductase (TbPTR1); assay: crystal structures; assay type: binding
[5] = target: T1, pteridine reductase (TbPTR1); assay: crystal structure at […] Å; assay type: biochemical; remark: listed apart in the source

Compound Nc1nc(N)nc(NC2CC2)n1 [Cyromazine, N-cyclopropyl-1,3,5-triazine-2,4,6-triamine] has a Ki [1] of over 35000 nM.
Compound COc1cc(NCc2ccc3nc(N)nc(N)c3c2C)cc(OC)c1OC [Trimetrexate, 5-methyl-6-[(3,4,5-trimethoxyphenyl)aminomethyl]quinazoline-2,4-diamine] has a Ki [2] of about 70 nM.
Compound Nc1nc2[nH]cc(CCc3ccc(C(=O)N[C@@H](CCC(=O)O)C(=O)O)cc3)c2c(=O)[nH]1 [Pemetrexed, 2-{4-[2-(4-amino-2-oxo-3,5,7-triazabicyclo[4.3.0]nona-3,8,10-trien-9-yl)ethyl]benzoyl}aminopentanedioic acid] has a Ki [3] of about 30 nM.
In the case of NC(=O)c1ccc[n+]([C@@H]2O[C@H](COP(=O)(O)OP(=O)(O)OC[C@H]3O[C@@H](n4cnc5c(N)ncnc54)[C@H](OP(=O)(O)O)[C@@H]3O)[C@@H](O)[C@H]2O)c1 [NADP+], the “crystal structures (complexes with pemetrexed, trimetrexate, PY848)” value [4] is reported as “Crystals of TbPTR1 in a binary complex with oxidized cofactor (NADP^+) were grown”.
COc1ccc(OC)c(CCc2csc3nc(N)nc(N)c23)c1 [PY848, 2,4-diamino-5-[2-(2,5-dimethoxyphenyl)ethyl]thieno[2,3-d]-pyrimidine] showed a Ki [5] of about 70 nM.
